Patent US20090131380A1, “Novel pharmaceutical composition for topical treatment of skin psoriasis and the treatment method thereof” (priority 2007, published 2009)

How the values were obtained:
[1] = tested on: skin psoriasis; details: cited from earlier work; for effect on psoriatic rash (irritation / worsening): topically administered; for clinical antipsoriatic efficacy: topical, 0.05% (w/w) in Locobase® unctuous creme, 50 μg/cm^2/24 h, 35 days
[2] = tested on: psoriatic plaques (skin psoriasis); experiment: Topical treatment trial of psoriatic plaques in one psoriasis patient (Tetrac, Control and Daivonex regimens); format: in vivo, human; details: twice a day
Method: A psoriasis patient having almost symmetrical psoriatic plaques on the lateral sides of both elbows (l.dx: 41 cm^2 and l.sin: 44 cm^2) and a psoriatic plaque (53 cm^2) on right calf was chosen for the trial.
a) An ointment (Locobase® unctuous creme, Astellas Pharma A/S Glostrup, Denmark) in which 500 μg/g 3,3′,5,5′-tetraiodothyroacetic acid (0.05%) of GMP-quality (Pharmatory Ltd., Oulu, Finland) was mixed was used as an ex tempore preparation for the concerned treatment purpose (hereinafter referred to as “Tetrac”).
b) A 50 μg/g calcipotriol (0.005%) containing creme (Daivonex®, LEO Pharma A/S, Ballerup, Denmark) was available as commercial pharmaceutical product (hereinafter referred to as “Daivonex®”).
c) A betamethasone 17-valerate-containing creme (Bemetson®, Orion oyj, Espoo, Finland) responding betamethasone 1 mg/g (0.1%) was available as a commercial product (hereinafter referred to as “Bemetson®”).
a) The psoriatic lesion of the left elbow of the patient was selected as the target of the topical treatment with Tetrac, the result of which is shown in left column of FIG. 1—“The Tetrac Regimen”. […]

[3] = tested on: psoriasis; details: topical Triac; WO96/40048; cited from earlier work
[4] = tested on: plaque psoriasis; details: placebo-controlled double-blind study, carried out in 1997; cited from earlier work

Compound	effect on psoriatic rash (irritation / worsening) [1]	clinical antipsoriatic efficacy [1]	other results
N[C@@H](Cc1cc(I)c(Oc2cc(I)c(O)c(I)c2)c(I)c1)C(=O)O [L-thyroxine]	greatly worsen psoriatic rash		
N[C@@H](Cc1cc(I)c(Oc2ccc(O)c(I)c2)c(I)c1)C(=O)O [L-triiodothyronine]	greatly worsen psoriatic rash		
O=C(O)CCc1cc(I)c(Oc2cc(I)c(O)c(I)c2)c(I)c1 [Tetraprop, 3,3′,5,5′-tetraiodothyropropionic acid]		strong clinical antipsoriatic efficacy	
O=C(O)Cc1cc(I)c(Oc2cc(I)c(O)c(I)c2)c(I)c1 [Tetrac, 3,3′,5,5′-tetraiodothyroacetic acid]		strong clinical antipsoriatic efficacy	clinical antipsoriatic effect on psoriatic lesion ([2]; after five weeks, photographs FIG. 1 / FIG. 2): clear clinical antipsoriatic effect; clinical antipsoriatic effect / healing of psoriatic plaque at end of trial ([2]; six weeks, Bemetson® (betamethasone) concurrently added for the final sixth week): surprisingly more potent clinical antipsoriatic effect
O=C(O)Cc1cc(I)c(Oc2ccc(O)c(I)c2)c(I)c1 [Triac, 3,3′5-triiodothyroacetic acid]	do not irritate or worsen psoriatic rash	indeed ineffective	experiment persons in whom an antipsoriatic effect had emerged [3]: 60%; efficacy in the topical treatment of plaque psoriasis [4]: ineffective
N[C@H](Cc1cc(I)c(Oc2cc(I)c(O)c(I)c2)c(I)c1)C(=O)O [D-thyroxine]	do not irritate or worsen psoriatic rash	ineffective	
